Where two headings read alike, the source gives them in different places.
Key:
SARS-CoV-2 [1] = experiment: microbe, parasite or virus in culture; type: cell-based, strain USA_WA1/2020
SARS-CoV-2 [2] = type: cell-based, strain USA_WA1/2020
SARS-CoV-2 [3] = type: cell-based, strain USA_WA1/2020; conditions: VPS34-IN1 5 μM, orlistat 500 μM, triacsin C 5 μM, TOFA 50 μM, 2-bromopalmitate 50 μM, A922500 30 μM, remdesivir 1 μM
SARS-CoV-2 [4] = experiment: microbe, parasite or virus in culture; type: cell-based, strain USA_WA1/2020; conditions: Severe acute respiratory syndrome coronavirus 2, Calu-3, read-out: IC50, infectious virus production (plaque assay)
Vero E6 cells = conditions: concentrations below 16.67 μM of 10-point dose response
SARS-CoV-2 [5] = type: cell-based, strain USA_WA1/2020; remark: listed apart in the source
VPS34 = VPS34 (Homo sapiens, UniProt Q8NEB9); type: cell-based; conditions: Huh7 cells, 24 h treatment; VPS34-IN1 2 μM, PIK-III 5 μM, SAR405 5 μM, Compound 19 5 μM, Orlistat 200 μM
VPS34, sequence (Q8NEB9 whole entry): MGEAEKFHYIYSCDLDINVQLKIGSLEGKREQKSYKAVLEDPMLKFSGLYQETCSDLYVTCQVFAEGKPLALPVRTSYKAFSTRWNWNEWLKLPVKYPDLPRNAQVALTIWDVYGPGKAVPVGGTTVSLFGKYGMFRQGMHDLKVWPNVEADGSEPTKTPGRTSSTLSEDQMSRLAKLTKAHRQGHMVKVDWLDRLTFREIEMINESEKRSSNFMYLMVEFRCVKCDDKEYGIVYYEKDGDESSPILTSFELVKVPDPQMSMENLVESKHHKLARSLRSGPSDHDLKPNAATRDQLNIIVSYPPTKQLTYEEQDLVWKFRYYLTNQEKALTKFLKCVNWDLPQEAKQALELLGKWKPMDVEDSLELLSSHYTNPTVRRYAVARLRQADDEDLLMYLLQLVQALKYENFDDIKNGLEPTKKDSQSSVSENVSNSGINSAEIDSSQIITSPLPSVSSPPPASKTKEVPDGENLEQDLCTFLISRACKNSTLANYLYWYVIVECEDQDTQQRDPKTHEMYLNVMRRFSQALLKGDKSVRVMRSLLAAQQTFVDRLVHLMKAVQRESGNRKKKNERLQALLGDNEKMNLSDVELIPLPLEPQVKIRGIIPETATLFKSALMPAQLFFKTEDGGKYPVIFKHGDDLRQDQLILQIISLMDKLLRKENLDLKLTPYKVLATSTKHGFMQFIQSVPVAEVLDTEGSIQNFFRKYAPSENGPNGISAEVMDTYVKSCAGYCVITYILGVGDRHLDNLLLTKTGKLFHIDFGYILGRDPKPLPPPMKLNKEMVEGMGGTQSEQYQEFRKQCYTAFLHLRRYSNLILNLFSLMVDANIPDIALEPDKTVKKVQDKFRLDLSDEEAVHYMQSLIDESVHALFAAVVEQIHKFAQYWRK

[6] = read-out: IC50, infectious virus production (focus forming assay)

SMILES	IC50 (SARS-CoV-2 [1]; [6]) [nM]	viral RNA levels (SARS-CoV-2 [2])	dsRNA and SARS-CoV-2 N distribution (replication centers) (SARS-CoV-2 [3])	IC50 (SARS-CoV-2 [4]) [nM]	also measured
CCCCCCCCCCCCCCC(Br)C(=O)O (stereo not shown) [2-bromopalmitate]	23000	reduced RNA levels at both MOI 0.01 and 1	fewer but larger foci positive for both markers	–	concentrations at which infectious virus production was inhibited (SARS-CoV-2 [1]): greater than 10 μM
O=C(Nc1ccccc1)Nc1ccc(-c2ccc(C(=O)[C@@H]3CCC[C@H]3C(=O)O)cc2)cc1 [A922500]	4020	–	loss of these distinct puncta and dispersion of dsRNA and SARS-CoV-2 N	–	–
C=C1C(=O)OC(CCCCCCCC)C1C(=O)O (stereo not shown) [C75]	22800	–	–	–	–
Nc1ncc(-c2ccnc(Nc3ccncc3)n2)c(CC2CC2)n1 [PIK-III]	–	–	–	120	toxicity at the remaining concentrations (resistance 1-20 hpi) (Vero E6 cells): no toxicity was observed
C[C@@H]1COCCN1c1cc(=O)n2c(n1)N(Cc1cncc(Cl)c1)[C@H](C(F)(F)F)CC2 [SAR405]	–	–	–	–	IC50 (SARS-CoV-2 [1]; Severe acute respiratory syndrome coronavirus 2, Calu-3, read-out: IC50, infectious virus production (focus forming assay)): 376 nM
CCCCCCCCCCCCCCOc1ccc(C(=O)O)o1 [TOFA]	1340	–	loss of these distinct puncta and dispersion of dsRNA and SARS-CoV-2 N	–	–
CC(C)(O)CNc1ncc(-c2ccnc(Nc3ccnc(Cl)c3)n2)c(CC2CC2)n1 [VPS34-IN1]	–	reduced RNA levels at both MOI 0.01 and 1	loss of these distinct puncta and dispersion of dsRNA and SARS-CoV-2 N	550	toxicity at the remaining concentrations (resistance 1-20 hpi) (Vero E6 cells): no toxicity was observed
CCOC(=O)[C@@]1(CCCCCCOc2ccc(Cl)cc2)CO1 [etomoxir]	–	–	–	–	inhibition of SARS-CoV-2 (focus forming assay) (SARS-CoV-2 [1]): Neither compound showed any inhibition
CCCCCCCCCCC[C@@H](C[C@@H]1OC(=O)[C@H]1CCCCCC)OC(=O)[C@H](CC(C)C)NC=O [orlistat]	–	reduced RNA levels at both MOI 0.01 and 1	loss of these distinct puncta and dispersion of dsRNA and SARS-CoV-2 N	21200	inhibition of viral cytopathic effects at highest concentration (SARS-CoV-2 [5]): complete inhibition was not achieved; effect on GFP-2xFYVE localization to endosomes (puncta) (VPS34): did not affect GFP-2xFYVE localization
CCC(CC)COC(=O)[C@H](C)N[P@](=O)(OC[C@H]1O[C@@](C#N)(c2ccc3c(N)ncnn23)[C@H](O)[C@@H]1O)Oc1ccccc1 [remdesivir]	–	–	distribution of N and dsRNA similar to the DMSO control	–	RNA synthesis at earlier time points (4 and 10 hpi) (SARS-CoV-2 [2]): inhibited RNA synthesis at earlier time points as well
CCC/C=C/C/C=C/C=C/C=N/NN=O [triacsin C]	–	reduced RNA levels at both MOI 0.01 and 1	fewer but larger foci positive for both markers	40	–
COc1ccc(CN2CCNCC2)c(OC)c1OC [trimetazidine]	–	–	–	–	inhibition of SARS-CoV-2 (focus forming assay) (SARS-CoV-2 [1]): Neither compound showed any inhibition

Source: paper PMC8289695 (Cell Reports, 2021)
